In ChEMBL document CHEMBL1201862, “PubChem BioAssay data set” (2004):
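Cultured in 96-well plates, cells were exposed to test compound for 48 hours across five concentrations. Abbreviation: GI50, concentration required for 50% inhibition of growth.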 Activity calls are given as the source filed them. Cut-off read from the data, not from the text of the source: active = GI50 up to about 1.1 µM and inactive = higher.

Experiments:
Assay in all cases: inhibition of tumour cell growth, NCI panel, 48 h
[1] = tested on: A498
[2] = tested on: CCRF-CEM
[3] = tested on: DU-145
[4] = tested on: HCC 2998
[5] = tested on: HCT-15
[6] = tested on: IGROV-1
[7] = tested on: MCF7
[8] = tested on: MDA-MB-231
[9] = tested on: Malme-3M
[10] = tested on: NCI-H522
[11] = tested on: OVCAR-5
[12] = tested on: SF-295
[13] = tested on: SF-539
[14] = tested on: SK-MEL-2
[15] = tested on: SNB-75
[16] = tested on: SR
[17] = tested on: SW-620
[18] = tested on: TK-10
[19] = tested on: U-251
[20] = tested on: UACC-62

Row | SMILES | GI50 [1] | GI50 [2] | GI50 [3] | GI50 [4] | GI50 [5] [µM] | GI50 [6] | GI50 [7] | GI50 [8] | GI50 [9] | GI50 [10] | GI50 [11] | GI50 [12] | GI50 [13] | GI50 [14] | GI50 [15] | GI50 [16] | GI50 [17] | GI50 [18] | GI50 [19] | GI50 [20]
1 | COc1cccc2c1Cc1cc(-c3ccccc3)[n+](C)n1-2 | 31.5 µM (inactive) | 3.37 µM (inactive) | 30.1 µM (inactive) | 10.2 µM (inactive) | 31.3 | 12.5 µM (inactive) | 2.3 µM (inactive) | 13.2 µM (inactive) | 10.3 µM (inactive) | 4.93 µM (inactive) | 23.9 µM (inactive) | 20.3 µM (inactive) | 5.4 µM (inactive) | 17.5 µM (inactive) | 20 µM (inactive) | 7.57 µM (inactive) | 6.1 µM (inactive) | 28.8 µM (inactive) | 5.36 µM (inactive) | 15 µM (inactive)
2 | CCOC(=O)CC1c2ccc(O)cc2OC(=O)C1c1ccc([N+](=O)[O-])cc1 (stereo not given) | 25.6 µM (inactive) | 22.8 µM (inactive) | 48.9 µM (inactive) | 20.3 µM (inactive) | 30.4 | 21.5 µM (inactive) | 14.8 µM (inactive) | 18.5 µM (inactive) | 27.4 µM (inactive) | 18.6 µM (inactive) | 58.6 µM (inactive) | 38.4 µM (inactive) | 31 µM (inactive) | 17 µM (inactive) | 23.9 µM (inactive) | 31.8 µM (inactive) | 65.6 µM (inactive) | 30.3 µM (inactive) | 35.8 µM (inactive) | 37.2 µM (inactive)
3 | COc1cc2c3cc1Oc1c(O)c(OC)cc4c1[C@H](Cc1ccc(cc1)Oc1cc(ccc1O)C[C@H]3N(C)CC2)N(C)CC4 | 16.7 µM (inactive) | 10.4 µM (inactive) | 15.1 µM (inactive) | 7.05 µM (inactive) | 9.29 | 13.8 µM (inactive) | 13.3 µM (inactive) | 10.3 µM (inactive) | 17.3 µM (inactive) | 11 µM (inactive) | 23.6 µM (inactive) | 12.4 µM (inactive) | 3.23 µM (inactive) | 12.3 µM (inactive) | 18.8 µM (inactive) | 1.63 µM (inactive) | 16.5 µM (inactive) | 13.6 µM (inactive) | 9.48 µM (inactive) | 17.4 µM (inactive)
4 | COC(=O)c1sc2c(Cl)c(Cl)sc2c1Cl | > 100 µM (inactive) | > 100 µM (inactive) | > 100 µM (inactive) | > 100 µM (inactive) | > 100 | > 100 µM (inactive) | 50.5 µM (inactive) | > 100 µM (inactive) | > 100 µM (inactive) | > 100 µM (inactive) | > 100 µM (inactive) | 77.4 µM (inactive) | 66.7 µM (inactive) | > 100 µM (inactive) | > 100 µM (inactive) | > 100 µM (inactive) | > 100 µM (inactive) | 24.2 µM (inactive) | 97.5 µM (inactive) | > 100 µM (inactive)
5 | COc1ccc(C2C(Cl)C(=O)N2NC(=O)c2ccc(N)cc2)cc1OC (stereo not given) | 16.6 µM (inactive) | 1.71 µM (inactive) | 16.4 µM (inactive) | 8.11 µM (inactive) | 7.46 | 1.36 µM (inactive) | 9.84 µM (inactive) | 14.7 µM (inactive) | 12.5 µM (inactive) | 1.98 µM (inactive) | 19.1 µM (inactive) | 7.16 µM (inactive) | 7.8 µM (inactive) | 11.9 µM (inactive) | 15.6 µM (inactive) | 2.2 µM (inactive) | 3.27 µM (inactive) | 17 µM (inactive) | 2.72 µM (inactive) | 7.29 µM (inactive)
6 | CC(=O)Nc1n[n+]([O-])c2cc(C)ccc2[n+]1[O-] | 5.22 µM (inactive) | 2.05 µM (inactive) | 4.71 µM (inactive) | 3.84 µM (inactive) | 1.7 | 1.48 µM (inactive) | 0.296 µM (active) | 6.81 µM (inactive) | 3.18 µM (inactive) | 2.05 µM (inactive) | 12 µM (inactive) | 2.5 µM (inactive) | 1.99 µM (inactive) | 3.81 µM (inactive) | 2.88 µM (inactive) | 2.56 µM (inactive) | 2.41 µM (inactive) | 22.8 µM (inactive) | 2.92 µM (inactive) | 1.78 µM (inactive)
7 | COC(=O)C(CNC(=O)/C=C/c1ccc(OC)c(OC)c1)NC(=O)/C=C/c1ccc(OC)c(OC)c1 (stereo not given) | > 100 µM (inactive) | > 100 µM (inactive) | > 100 µM (inactive) | 50 µM (inactive) | > 100 | > 100 µM (inactive) | > 100 µM (inactive) | > 100 µM (inactive) | 92.3 µM (inactive) | > 100 µM (inactive) | > 100 µM (inactive) | > 100 µM (inactive) | > 100 µM (inactive) | > 100 µM (inactive) | 90.6 µM (inactive) | > 100 µM (inactive) | > 100 µM (inactive) | > 100 µM (inactive) | > 100 µM (inactive) | > 100 µM (inactive)
8 | CCC(NC1=NCCO1)c1cccs1 (stereo not given) | 22.3 µM (inactive) | 7.36 µM (inactive) | 13.7 µM (inactive) | 15.5 µM (inactive) | 15.6 | 20.8 µM (inactive) | 15.6 µM (inactive) | 20.7 µM (inactive) | 13 µM (inactive) | 19.5 µM (inactive) | 17 µM (inactive) | 15.1 µM (inactive) | 15.5 µM (inactive) | 15.5 µM (inactive) | 3.24 µM (inactive) | 25.8 µM (inactive) | 24.3 µM (inactive) | 15.8 µM (inactive) | 13.5 µM (inactive) | 16 µM (inactive)
9 | NS(=O)(=O)c1ccc(NC(=O)N/N=C/c2ccccc2[N+](=O)[O-])cc1 | > 100 µM (inactive) | 25.9 µM (inactive) | 72.3 µM (inactive) | 33.9 µM (inactive) | 35 | 31.2 µM (inactive) | 29.7 µM (inactive) | 44.8 µM (inactive) | 78.2 µM (inactive) | 41.8 µM (inactive) | > 100 µM (inactive) | 61.7 µM (inactive) | 38.5 µM (inactive) | 58.7 µM (inactive) | > 100 µM (inactive) | 17.9 µM (inactive) | 36.1 µM (inactive) | > 100 µM (inactive) | 43.1 µM (inactive) | 75.3 µM (inactive)
10 | O=C1NC(O)c2ccccc2O1 (stereo not given) | > 100 µM (inactive) | > 100 µM (inactive) | > 100 µM (inactive) | > 100 µM (inactive) | > 100 | > 100 µM (inactive) | > 100 µM (inactive) | > 100 µM (inactive) | > 100 µM (inactive) | > 100 µM (inactive) | > 100 µM (inactive) | > 100 µM (inactive) | > 100 µM (inactive) | > 100 µM (inactive) | > 100 µM (inactive) | > 100 µM (inactive) | > 100 µM (inactive) | > 100 µM (inactive) | > 100 µM (inactive) | > 100 µM (inactive)
11 | COC(=O)c1ccc(NCC2=CC(=O)c3ccccc3C2=O)cc1 | 24.2 µM (inactive) | 2.04 µM (inactive) | 16.5 µM (inactive) | 19.4 µM (inactive) | 14.5 | 12.2 µM (inactive) | 18.4 µM (inactive) | 2.99 µM (inactive) | 5.81 µM (inactive) | 13.2 µM (inactive) | 21.6 µM (inactive) | 16.9 µM (inactive) | 23.4 µM (inactive) | 18.9 µM (inactive) | 20.7 µM (inactive) | 14.6 µM (inactive) | 22.2 µM (inactive) | 22.2 µM (inactive) | 22.9 µM (inactive) | 13.6 µM (inactive)
12 | N#C[BH2-][n+]1ccc(C(=O)NNCc2ccccc2)cc1 | > 100 µM (inactive) | > 100 µM (inactive) | > 100 µM (inactive) | > 100 µM (inactive) | > 100 | > 100 µM (inactive) | > 100 µM (inactive) | > 100 µM (inactive) | > 100 µM (inactive) | > 100 µM (inactive) | > 100 µM (inactive) | > 100 µM (inactive) | > 100 µM (inactive) | > 100 µM (inactive) | > 100 µM (inactive) | > 100 µM (inactive) | > 100 µM (inactive) | > 100 µM (inactive) | > 100 µM (inactive) | > 100 µM (inactive)
13 | O=C(O)[C@H](CCC[C@H]1C(=O)O[C@H](c2ccccc2)[C@H](c2ccccc2)N1C(=O)OCc1ccccc1)N[C@@H](c1ccccc1)[C@H](O)c1ccccc1 | 28 µM (inactive) | 20 µM (inactive) | > 100 µM (inactive) | 21 µM (inactive) | > 100 | 42.8 µM (inactive) | 28.3 µM (inactive) | 17.7 µM (inactive) | 21.2 µM (inactive) | 15.5 µM (inactive) | 38.4 µM (inactive) | 28.2 µM (inactive) | 18.6 µM (inactive) | 20 µM (inactive) | 17 µM (inactive) | 20.7 µM (inactive) | 25.1 µM (inactive) | 40.7 µM (inactive) | 16 µM (inactive) | 22.1 µM (inactive)
14 | Clc1nc2c(-c3cccs3)ncnc2n1Cc1ccccc1 | 19.4 µM (inactive) | > 68.1 µM (inactive) | 2.49 µM (inactive) | 3.21 µM (inactive) | 32.1 | 29.6 µM (inactive) | 6.04 µM (inactive) | 32.2 µM (inactive) | 36.5 µM (inactive) | 19.4 µM (inactive) | > 94.2 µM (inactive) | 63.5 µM (inactive) | 40 µM (inactive) | 63.2 µM (inactive) | 21.3 µM (inactive) | 6.97 µM (inactive) | > 30.3 µM (inactive) | 23 µM (inactive) | 38.5 µM (inactive) | 72.3 µM (inactive)
